Read-outs that look alike come from different tables or passages of the source.
Tests used:
[1] = tested on: CYP1A1 mRNA; test: Northern blot of CYP1A1 mRNA in HepG2 cells
Protocol: HepG2 cells were obtained from American Type Culture Collection (ATCC). Cells were grown in DMEM (Gibco/BRL). Twenty-four hours after cells were plated and grown to confluency, they were treated with one of the bioflavonoids, TCDD, or beta-naphthoflavone (Sigma). All inducers were dissolved in DMSO and this solvent was added to control cells at 0.1%.
(§1) Total RNA from hepatocytes or HepG2 cells was isolated using Trizol™ reagent (Gibco BRL Products, Gaithersburg, Md.) and quantified by measuring absorbance at 260 nm; purity was assessed by determining the 260/280 nm ratio. […] A cDNA probe for human 18S RNA probe (Ambion, Austin Tex.) was used to normalize the amount of RNA loaded in each lane. […] Autoradiographs of Northern blots were quantified by densitometry using a Model GS-670 Imaging Densitometer equipped with Molecular Analysis/Mac version 1.1.1. Image Analysis software (BioRad laboratories, Hercules, Calif.) or by scaning autoradiograms with a ScanMaker II (Microtek) and digitized with Un-Scan-It software (Silk Scientific, Orem Utah). Exposure times used were in the linear range of the film, Kodak XAR-5.

[2] = tested on: CYP1A1 mRNA; test: Northern blot of CYP1A1 mRNA in primary cultures of human hepatocytes (Example II); conditions: hepatocytes
Protocol: Six well plates containing human hepatocytes were obtained from the Liver Tissue Procurement and Distribution System (LTPADS, University of Minnesota, Minneapolis, Minn.). […] All inducers were dissolved in DMSO and added to media at a 0.1% final concentration of this reagent. After treatment, media was removed and cells harvested for RNA isolation.
as §1

[3] = tested on: AhR (dioxin response elements); test: DRE12-6 luciferase assay (HepG2 with dioxin response elements)
Protocol: FIG. 25A: DRE12-6 cells were treated for 28 hours with the indicated concentrations of phytochemicals. FIG. 25B: DRE12-6 cells were treated with the indicated chemicals for 3 hours prior to co-treatment with 2,3,7,8-tetrachlorodibenzo-p-dioxin (TCDD) for 28 hours.
Chemical treatment was followed by cell lysis and luciferase measurement.
FIG. 26A: DRE12-6 cells were inoculated into a 96-well plate (2×10^4 cells per well) a day prior to treatment and treated for 28 hours with the indicated concentrations of the environmental contaminants (PAHs, PAH derivatives, PCBs, or pesticide derivatives). FIG. 26B: DRE12-6 cells were treated with the indicated chemicals for 3 hours prior to co-treatment with 2,3,7,8-tetrachlorodibenzo-p-dioxin (TCDD) for 28 hours.
The luciferase-SV40 promoter vector, with the three copies of the dioxin response elements, was transfected into HepG2 cells, which were put under neomycin selection to yield the stable cell line DRE12-6, for detection of AhR-dependent transactivation.
Luciferase assay: Luciferase assays using the LucLite system (Packard Instrument Co., Meriden, Conn.) were performed according to the manufacturer's instructions. Results were expressed as relative light units or fold induction, relative to DMSO-treated control cells. The data represent the mean±standard deviation of experiments performed in duplicate.

[4] = tested on: PXR / CYP3A4 response elements; test: DPX2 (Hepg-hPXR/3A4-Luc) luciferase assay; conditions: DPX2 cells, 48 hours
Protocol: Compounds tested included known PXR ligands and conventional drugs (FIG. 30A), environmental contaminants (FIG. 30B), and herbal supplements (FIG. 30C). DPX2 cells were cultured with DMEM supplemented with 10% fetal bovine serum and neomycin. Cells were inoculated into 96-well plate at a density of 1×10^4 cells per well the day before treatment.
2. […] In addition, a distal enhancer module, XREM, was amplified by PCR using the sense primer
The resulting amplified XREM fragment was ligated upstream of PXRE containing a 3A4 promoter, into a luciferase vector.
A neomycin resistance gene was generated by PCR amplification using the pcDNA3.1 plasmid (Invitrogen, Carlsbad, Calif.), which encodes a neomycin resistant gene, as a DNA template. The sense primer had the sequence […] Amplification was followed by SalI digestion of the PCR product, and the resulting fragment ligated to the SalI-digested PGL3-promoter plasmid, which contains luciferase as a reporter gene. […] The CYP3A4 cell line DPX2 (Hepg-hPXR/3A4-Luc) was established by double transfection with the PXR expression plasmid and the luciferase plasmid containing CYP3A4 PXR response element under selection with both neomycin and hygromycin.

[5] = tested on: PXR / mdr1(dr4) response element; test: Hep-PXR/Pgp-Luc stable cell luciferase assay; conditions: 48 hours; for strength of luciferase induction (in words): Hep-PXR/PgpLuc cells, omeprazole 100 micromoles per liter versus rifampicin 10 micromoles per liter; for dose dependence of luciferase induction (in words): Hep-PXR/Pgp-Luc cells
Protocol: (§2) FIG. 35 depicts dose-response behavior to various PXR activators in stable cell lines overexpressing PXR and harboring DR4 response element. FIG. 35A: Results are shown for the stable cell line Hep-PXR/PgpLuc. FIG. 35B: Results are shown for the stable cell line Caco-PXR/PgpLuc.
(§3) Cells were exposed to the test compounds for 48 hours at the concentrations indicated.
FIG. 36 depicts the effect of environmental and botanical chemicals on luciferase activity in the stable cell line Hep-PXR/PgpLuc. Cells were inoculated into 96-well plates at a density of 2×10^4 cells per well. After overnight recovery, cells were treated with the test compounds at the concentrations indicated for 48 hours.
(§4) Establishment of stable transformants containing both PXR and reporter plasmid and development of high throughput bioassay for PXR-dependent transactivation: The stable transformants Hep-PXR/mdr1(dr4)-Luc and Caco-PXR/mdr1(dr4)-Luc cell lines were generated from the parental cell lines HepG-PXR and Caco-PXR, respectively, according to the following procedure. The parental cell lines HepG-PXR and Caco-PXR, which overexpress PXR, were stably transfected with the luciferase reporter plasmid mdr1(dr4)-Luc. The transfected cells were cultured in DMEM (HepG-PXR cells) or in IMEM (Caco-PXR cells), both media supplemented with 10% fetal bovine serum and neomycin (700 micrograms per milliliter).
(§5) For the induction assay, stable transformants were seeded in 96-wells plates at a density of 1×10^4 cells per well and allowed to recover overnight. Plates were treated with test compounds at varying concentrations, using 3 replicates per dose. After 48 hours of exposure to the test compound, cells were washed with phosphate buffered saline, lysis buffer was applied to the wells, and luciferase substrate added. Following 10 minutes for light adaptation, luminescence was monitored according to the manufacturer's instructions (Packard kit, Biomed).

[6] = tested on: PXR / mdr1(dr4) response element; test: Caco-PXR/Pgp-Luc stable cell luciferase assay; conditions: Caco-PXR/Pgp-Luc cells, 48 hours
Protocol: as §2, §3, §4, §5

[7] = tested on: MDR1 P-glycoprotein mRNA; test: Northern blot of MDR1 P-glycoprotein expression (Example VI)
Text: FIG. 31 depicts MDR1 gene expression in LS174T cells as analyzed by Northern blot. […] Total RNA from the colon adenocarcinoma cell line LS174T was isolated and fractionated on a 1% formaldehyde gel and transferred onto a nylon membrane. The RNA blot was hybridized to ^32P-labeled MDR1 cDNA probe (top panel) or 18s rRNA probe for normalization of RNA loading on the gel (bottom panel).
FIG. 32A: Lanes 1 and 2, primary human hepatocytes; lanes 3 and 4, LS174T cells. FIG. 32B: Lanes 1 and 2, HepG2 cells; lanes 3 and 4, HepG2 that overexpress PXR (Hepg-PXR cells). FIG. 32C: Lanes 1 and 2, Caco-2; lanes 3 and 4, Caco-2 cells that overexpress PXR (Caco-PXR cells).
Total RNA from the colon adenocarcinoma cell line LS174T was isolated and fractionated on a 1% formaldehyde gel and transferred onto a nylon membrane. The RNA blot was hybridized to ^32-P-labeled MDR1 cDNA probe (top panels), ^32-P-labeled CYP3A4 cDNA probe (middle panels), or 18s rRNA probe for normalization of RNA loading on the gel (bottom panels).
FIG. 37 depicts MDR1 gene regulation in response to chrysin as studied by Northern blot analysis. […] Total RNA from the hepatocytes was isolated and fractionated on a 1% formaldehyde gel and transferred onto a nylon membrane. The RNA blot was hybridized to ^32-P-labeled MDR1 cDNA probe (top panels), ^32P-labeled CYP3A4 cDNA probe (middle panels), or 18s rRNA probe for normalization of RNA loading on the gel (bottom panels).
Northern Blot analysis for MDR1 P-glycoprotein and CYP3A4 expression: Total RNA was prepared from cells (primary hepatocytes, LS174T, HepG2, or Caco-2) using Trizol reagent (Invitrogen, Carlsbad, Calif.). For Northern blots, 15 micrograms of total RNA was fractionated on a 1% formaldehyde gel and transferred onto a nylon membrane by capillary transfer. A 530-base pair fragment of MDR1 cDNA was obtained from PCR cloning using the sense primer […] The resulting fragment was ^32P-labeled by random priming (Invitrogen, Carlsbad, Calif.) for use as an MDR1 probe. […] All constructs and cDNAs were subjected to sequence analysis. Hybridization was performed with the ExpressHyb system according to the manufacturer's instructions (Clontech, Palo Alto, Calif.).

[8] = tested on: human CYP1A1 promoter (Ah receptor); test: 101L cell luciferase assay (HepG2 with human CYP1A1 promoter-luciferase), 96-well; conditions: 101L cells, 18 hours; 1 to 20 micromolar (resveratrol 10, apigenin 5, quercetin and curcumin 20 micromolar); GTE 0.1 milligrams/ml
Protocol: Cells were initially seeded in flasks containing media without G418. After an overnight incubation the cultures were changed into media containing G418 for antibiotic selection. After three to five days, cells were removed from flasks by trypsinization and replated on either a twenty-four-well plate at a density of 3.5×10^5 cells per well, or a ninety-six-well plate at a density of 7.5×10^4 cells per well, in DMEM media that was replaced with that containing 0.1% FBS and without G418 or indicator (phenol red). The next day, media containing 0.1% FBS and G418 was added to the cultures. […] For the antagonist experiments, cells were co-treated with a flavonoid and two nanomolar TCDD. All inducers were dissolved in DMSO and this reagent was added to control cells at 0.1%. The cells were treated with varous doses and times (six to eighteen hours). After treatment, the media containing the compound was removed by aspiration and replaced with one-hundred microliters per well of DMEM for direct analysis of luciferase activity. Experiments were performed on 101L cells from frozen stocks on the initial derivation and the passage number was limited to thirty.
Luciferase assays were performed as specified by the manufacturer (LucLite system, Packard Instrument, Meriden, Conn.). Activity was determined using a Packard LumiCount luminometer and results expressed as relative light units or fold increase above control (DMSO treated cells.

[9] = DRE12-6 cells, test compound 3 hours prior to co-treatment with TCDD for 28 hours

O=c1cc(-c2ccccc2)oc2ccc3ccccc3c12 [beta-naphthoflavone]
HepG2 CYP1A1 mRNA (%), normalized to TCDD induction [1]: 50%

O=c1c(O)c(-c2ccc(O)c(O)c2)oc2cc(O)cc(O)c12 [quercetin]
induction of CYP1A1 mRNA in isolated hepatocytes (in words) [2]: did not elicit induction | effect on TCDD-mediated luciferase induction (in words) [3]: effectively inhibited

COc1ccc(C(c2ccc(OC)cc2)C(Cl)(Cl)Cl)cc1 [methoxychlor]
effect on TCDD-mediated luciferase induction (in words) [3, 9]: effectively inhibited | luciferase response curve (in words) [4]: dose-dependent | strength of luciferase induction (in words) [5]: strongly induced

COc1cc(/C=C/C(=O)CC(=O)/C=C/c2ccc(O)c(OC)c2)ccc1O [curcumin]
induction of CYP1A1 mRNA in isolated hepatocytes (in words) [2]: did not elicit induction

Clc1cc(-c2ccccc2)c(Cl)c(Cl)c1Cl [2,3,4,5 tetrachlorobiphenyl]
effect on TCDD-mediated luciferase induction (in words) [3, 9]: effectively inhibited

C[C@@]12CCC[C@H]1[C@@H]1CC[C@H]3C[C@@H](O)CC[C@]3(C)[C@H]1CC2 [androstanole]
dose dependence of luciferase induction (in words) [6]: dose-dependent luciferase induction | dose dependence of luciferase induction (in words) [5]: dose-dependent luciferase induction

CC#C[C@]1(O)CC[C@H]2[C@@H]3CCC4=CC(=O)CCC4=C3[C@@H](c3ccc(N(C)C)cc3)C[C@@]21C [RU486, mifepristone]
MDR1 expression in LS174T cells (in words) ([7]; LS174T cells, 48 hours): effectively induced | dose dependence of luciferase induction (in words) [6]: dose-dependent luciferase induction | strength of luciferase induction (in words) [6]: strongly induce | dose dependence of luciferase induction (in words) [5]: dose-dependent luciferase induction

Clc1ccccc1C(c1ccccc1)(c1ccccc1)n1ccnc1 [clotrimazole]
luciferase response curve (in words) [4]: dose-dependent

Oc1ccc(C=Cc2cc(O)cc(O)c2)cc1 [resveratrol]
CYP1A1 mRNA level Subject A (%), normalized to TCDD induction ([2]; human, 24 h): 5% | CYP1A1 mRNA level Subject B (%), normalized to TCDD induction ([2]; human, 24 h): 0% | CYP1A1 mRNA level Subject C (%), normalized to benzanthracene induction ([2]; human, 24 h): 12% | CYP1A1 mRNA level Subject D (%), normalized to TCDD induction ([2]; human, 24 h): 0% | HepG2 CYP1A1 mRNA (%), normalized to TCDD induction ([1]; human): 12%

O=c1c(O)c(-c2ccc(O)cc2)oc2cc(O)cc(O)c12 [kaempferol]
CYP1A1 mRNA level Subject B (%), normalized to TCDD induction ([2]; human, 24 h): 0% | CYP1A1 mRNA level Subject C (%), normalized to benzanthracene induction ([2]; human, 24 h): 10% | CYP1A1 mRNA level Subject D (%), normalized to TCDD induction ([2]; human, 24 h): 0% | effect on TCDD-mediated luciferase induction (in words) [3]: effectively inhibited

CO[C@H]1/C=C/O[C@@]2(C)Oc3c(C)c(O)c4c(O)c(c(/C=N/N5CCN(C)CC5)c(O)c4c3C2=O)NC(=O)/C(C)=C\C=C\[C@H](C)[C@H](O)[C@@H](C)[C@@H](O)[C@@H](C)[C@H](OC(C)=O)[C@@H]1C [rifampicin]
MDR1 P-glycoprotein expression in Hep-PXR stable cells (in words) ([7]; human): did not induce MDR1 P-glycoprotein expression further

C[C@@H]1C[C@H]2[C@@H]3CCC4=CC(=O)C=C[C@]4(C)[C@@]3(F)[C@@H](O)C[C@]2(C)[C@@]1(O)C(=O)CO [dexamethasone]
dose dependence of luciferase induction (in words) [6]: dose-dependent luciferase induction | dose dependence of luciferase induction (in words) [5]: dose-dependent luciferase induction | strength of luciferase induction (in words) [5]: Weaker luciferase induction

O=C1C[C@@H](c2ccc(O)cc2)Oc2cc(O)cc(O)c21 [naringenin]
CYP1A1 mRNA level Subject D (%), normalized to TCDD induction ([2]; human, 24 h): 0% | HepG2 CYP1A1 mRNA (%), normalized to TCDD induction ([1]; human): 0%

O=c1cc(-c2ccc(O)cc2)oc2cc(O)cc(O)c12 [apigenin]
CYP1A1 mRNA level Subject B (%), normalized to TCDD induction ([2]; human, 24 h): 0% | CYP1A1 mRNA level Subject C (%), normalized to benzanthracene induction ([2]; human, 24 h): 3% | CYP1A1 mRNA level Subject D (%), normalized to TCDD induction ([2]; human, 24 h): 0% | effect on TCDD-mediated luciferase induction (in words) [3]: effectively inhibited | HepG2 CYP1A1 mRNA (%), normalized to TCDD induction ([1]; human): 1%

(−)-epigallocatechin gallate [EGCG]
fold induction of CYP1A1-promoter-mediated luciferase activity by flavonoids [8]: negligible effects

— patent publication US20040077080A1, “Compositions and methods for induction of proteins involved in xenobiotic metabolism” (priority 2000, published 2004)
